{
  "source": "patent US10709769B2",
  "about": "“Use of endostatin peptides for the treatment of fibrosis” (University of Pittsburgh—Of the Commonwealth System of …, priority 2009, dated 2020)",
  "key": {"[1]": {"tested_on": "Human umbilical vein endothelial cells (HUVECs)", "test": "Tubular formation assay in Matrigel", "format": "cell-based", "settings": "50 nM, 24 hours", "description": "The ability of endostatin peptide to inhibit angiogenesis was examined in tubular formation assay using Matrigel® culture. Human umbilical vein endothelial cells (HUVECs) were maintained in endothelial cell basal medium-2 (EBM-2; Clonetics, San Diego, Calif.) supplemented with EBM-2 MV SingleQuots®. HUVECs (5×10^4) were cultured in duplicate on 24-well Matrigel® plates (BD Biosciences, San Diego, Calif.) alone, or in the presence of rE or E4 peptide (50 nM) in EBM-2 at 37° C. DMSO was used as vehicle control. After 24 hours, images were captured using a […] microscope. The degree of cord formation was quantified by measuring the area occupied by tubes in 6 random fields per well. Three independent experiments were performed."}, "mouse skin": {"tested_on": "mouse skin", "test": "Bleomycin-induced dermal fibrosis in vivo in mouse skin", "settings": "single administration 10 μg/ml on first day, daily bleomycin s.c., skin harvested after 10 days", "description": "FIGS. 8A-8B. The effect of endostatin E-4 on bleomycin induced dermal fibrosis in vivo. A: Mice were injected subcutaneously with 1×PBS as vehicle (V) or Bleomycin (Bleo; 20 μg/mouse) daily. E-4 (10 μg/ml) was mixed with bleomycin on the first day, and daily bleomycin administration was continued without subsequent injections of E4 (Bleo+E-4). Skin was harvested after 10 days. Sections were stained with H&E. Magnification, 100×. B: Graphical summary of dermal thickness data shown in A. Data represent three independent experiments. Mann-Whitney U test was used for statistical analysis. * P<0.001, ** P<0.00001.\nE4, a peptide representing the carboxy terminus of human endostatin, can attenuate fibrosis triggered by multiple fibrogenic factors. The anti-fibrotic effects of E4 can be detected whether administered concomitantly with or following the fibrogenic trigger. […]\nFor these studies, fibrosis was assessed by measurement of dermal thickness on H&E skin sections (skin), assessment of collagen levels by Masson Trichrome staining (skin and lung), and measurement of collagen levels by Sircol assay (lung). […] Results were assessed using the unpaired t test and the 3-way ANOVA (for the ID1 data)."}, "mouse lung": {"tested_on": "mouse lung", "test": "Bleomycin-induced pulmonary fibrosis in mice", "format": "in vivo", "settings": "for fibrosis and Masson Trichrome staining: 10 μg/ml intratracheally, lungs harvested 10 days", "description": "FIG. 10A-10C. E4 attenuates bleomycin induced lung fibrosis in vivo. A: Sixty μg of bleomycin was administrated intratracheally in combination with DMSO as a vehicle (Bleo) or E-4 (Bleo+E-4; 10 μg/ml). In some mice, E-4 (10 μg/ml) was administered intratracheally (IT) three days following bleomycin treatment (Bleo+E-4L). PBS was used as a vehicle for bleomycin (V). Lungs were harvested 10 days post-treatment. Representative images stained with H&E (left panel) and Masson trichrome (right panel) are representative of 3 independent experiments. Magnification, 100×. […] B: Quantification of acid soluble collagen obtained from mouse lungs treated as in panel C with V, Bleo, Bleo+E-4, and Bleo+E-4L. The levels of collagen are presented as μg/mg (lung) from three independent experiments. Unpaired-t test was used for statistical analysis. * P<0.05. […] For Bleo+E4L, Bleo was administered first, then there was a lag of three days between Bleo and E4 administration).\nFIG. 11. E4 attenuates bleomycin induced lung fibrosis in vivo whether administered intraperitoneally (IP) or intratracheally (IT). Bleomycin was administered IT at day 1, and E4 was administered either IP or IT at day 3. Lungs were harvested at day 21. […] Thus E4 is effective at reducing fibrosis irrespective of the route of administration. Results are shown for vehicle alone (V), bleomycin alone (Bleo), bleomycin and E4 administered IP, and bleomycin and E4 administered IT.\nE4, a peptide representing the carboxy terminus of human endostatin, can attenuate fibrosis triggered by multiple fibrogenic factors. The anti-fibrotic effects of E4 can be detected whether administered concomitantly with or following the fibrogenic trigger. The efficacy of E4 was confirmed in […] pre-clinical models of fibrosis: a) bleomycin-induced dermal fibrosis in vivo in mouse skin, b) TGF-β induced dermal fibrosis in mouse skin, and c) bleomycin-induced pulmonary fibrosis. E4 peptide or a control peptide (E1; representing the amino terminal region of endostatin) were administered at the same time as TGF-β or bleomycin or 3-4 days following TGF-β or bleomycin. […]\nFor these studies, fibrosis was assessed by measurement of dermal thickness on H&E skin sections (skin), assessment of collagen levels by Masson Trichrome staining (skin and lung), and measurement of collagen levels by Sircol assay (lung). Furthermore, to confirm the mechanism by which E4 exerts its anti-fibrotic effects, the production of extra-cellular matrix (ECM) components, the levels of enzymes that promote matrix stabilization and thus accumulation and levels of those that degrade ECM components, and levels of transcription factors downstream of the pro-fibrotic triggers were evaluated. Results were assessed using the unpaired t test and the 3-way ANOVA (for the ID1 data)."}, "ID1": {"tested_on": "ID1", "test": "ID1 mRNA real-time PCR in primary human lung fibroblasts", "format": "cell-based", "description": "FIG. 15. E4 reduces fibrosis in vitro by inducing expression of ID1, an inhibitor of TGF β, in primary human lung fibroblasts. Real-time PCR analysis was performed to determine the ID1 mRNA levels under the indicated conditions."}},
  "data": [
    {"substance": "H-^133SYCETWRTEAPSATGQASSLLGGRLLGQSAASCHHAYIVLCIENSFMT^180-CONH2 (H-SYCETWRTEAPSATGQASSLLGGRLLGQSAASCHHAYIVLCIENSFMT-NH2; cysteine pairing not given here; UniProt P39060 1704-1751, looked up, fragment) [E4, amino acids 133-180 of human endostatin; differs from E3 by the presence of a carboxy-terminal amide]", "values": [
      {"measurement": "inhibition of tubular structure formation", "setting": "[1]", "result": "modest"},
      {"measurement": "bleomycin induced dermal fibrosis (dermal thickness)", "setting": "mouse skin", "result": "significant attenuation"},
      {"measurement": "fibrosis and Masson Trichrome staining", "setting": "mouse lung; concomitantly with bleomycin", "result": "marked reduction"},
      {"measurement": "fibrosis and Masson Trichrome staining", "setting": "mouse lung; three days following bleomycin", "result": "marked reduction"},
      {"measurement": "bleomycin induced lung fibrosis", "setting": "mouse lung; intraperitoneal at day 3, lungs harvested day 21", "result": "significant attenuation"},
      {"measurement": "bleomycin induced lung fibrosis", "setting": "mouse lung; intratracheal at day 3, lungs harvested day 21", "result": "significant attenuation"},
      {"measurement": "levels of inhibitor of differentiation (ID)-1", "setting": "ID1", "result": "increases"}
    ]}
  ]
}
